Earlier results as cited in patent publication US20030168224A1, “Novel phosphorous-nitrogen compounds used as fireproofing agents in theroplastic molding materials and the production thereof” (priority 2000, published 2003).

Tests used:
[1] = prior-art product
[2] = prior-art product; remark: listed apart in the source

For N.O=C1NC(=O)NP(=S)(S)N1 [ammonium 4,6-dioxo-2-thiooxohexahydro-1,3,5,2-λ^5-triazaphosphorinane-2-thiolate], the decomposition temperature [1] is listed as 230 °C and the “solubility in hot water” value [2] is listed as “highly soluble”.
